Results as given in patent US10792301B2, “Therapeutic polysaccharide midi-GAGR and related materials and methods” (priority 2015, dated 2020).

Assays:
[1] = test system: Rat embryonic cortical neurons; assay: Neuritic atrophy caused by 4-HNE, Scholl ring analysis; format: cell-based; conditions: pre-treatment 2 days (1 μM; ascorbate 100 μM), then 25 μM 4-HNE 1 day
Protocol: Rat embryonic cortical neurons were treated with mock (FIG. 11C), 1 μM HA-GAGR (high acyl gellan gum), 1 μM dextran, 100 μM ascorbate or 1 μM midi-GAGR (FIG. 13A) for 2 days and then with 25 μM 4-hydroxynonenal (4-HNE), a lipid peroxide, for 1 day. After fixation, neurons were immunostained with anti-synaptophysin antibody (green) and rhodamine-phalloidin (actin: red). Scholl ring analysis was performed.

[2] = test system: primary mouse cortical neurons (E17, DIV4); assay: Neurite outgrowth in primary mouse cortical neurons; format: cell-based; conditions: 2 days; 1 μM midi-GAGR, dextran, alginate; 0.1 μM LA-GAGR; 0.01 μM HA-GAGR
Protocol: To analyze the effect of polysaccharides on neurite outgrowth, primary mouse cortical neurons were treated with vehicle (H2O) or 1 μM of dextran, alginate, or midi-GAGR, 0.01 μM of HA-GAGR, or 0.1 μM of LA-GAGR for 2 days prior to immunocytochemistry using anti-α-tubulin antibody and secondary Alexa488nm antibody. An etched grid coverslip containing 200 numbered boxes was used to select neurons objectively for image acquisition and analysis. A total of 24 boxes were randomly selected per treatment group. All the neurons having total neurite length longer than 4 times of the diameter of neuron cell body were chosen for image analysis. The total length of the neurites of each neuron was measured using Metamorph and used to calculate average total neurite length. To examine the effect of polysaccharides on the phosphorylation (activation) of nuclear CREB, neurons were stained with anti-pCREB antibody (Abcam & Santa Cruz biotechnologies, 2nd antibody with Alexa568nm), anti-α-tubulin antibody (Sigma, 2nd antibody with Alexa488nm), and DAPI (Sigma) after two-day incubation with vehicle (H2O) or 1 μM of dextran, alginate, or midi-GAGR, 0.01 μM of HA-GAGR, or 0.1 μM of LA-GAGR. […] The images of neurons on coverslips were taken by confocal microscopy at the same gain (850), offset (˜0.01) and exposure time (2 sec). The intensity of the staining of nuclear pCREB was measured using Metamorph and used to calculate average intensity. In addition, the phosphorylation of CREB in the cytosols of mouse cortical neurons treated with polysaccharides were detected by immunoblotting. Primary mouse neurons were dissected from 16 mouse embryos (E17) and plated in the wells of 6-well plates (1×10^6 cells/well), differentiated for 6 days, and treated with polysaccharides for 48 h. […] The protein bands on blots recognized by anti-pCREB (Santa Cruz Biotechnologies) and anti-CREB antibodies were detected on Amersham Hyperfilm™ ECL films (GE Healthcare Life Science) using SuperSignal® West Pico Chemiluminescent Substrate (Thermo Scientific).

FGFR1 = target: T1, FGFR1 (Mus musculus, UniProt P16092); assay: Affinity chromatography with midi-GAGR- or dextran-conjugated sepharose beads, FGFR1 immunoblot; format: binding; conditions: brain extract in 0.5% Igepal PMEE buffer
T1 construct: Whole mouse brains were homogenized for cytosol extraction in PMEE buffer containing 1% Igepal CA-630; from tissue; host or cells: mouse cerebral cortex / whole brain detergent extract
T1 sequence (P16092 22-822): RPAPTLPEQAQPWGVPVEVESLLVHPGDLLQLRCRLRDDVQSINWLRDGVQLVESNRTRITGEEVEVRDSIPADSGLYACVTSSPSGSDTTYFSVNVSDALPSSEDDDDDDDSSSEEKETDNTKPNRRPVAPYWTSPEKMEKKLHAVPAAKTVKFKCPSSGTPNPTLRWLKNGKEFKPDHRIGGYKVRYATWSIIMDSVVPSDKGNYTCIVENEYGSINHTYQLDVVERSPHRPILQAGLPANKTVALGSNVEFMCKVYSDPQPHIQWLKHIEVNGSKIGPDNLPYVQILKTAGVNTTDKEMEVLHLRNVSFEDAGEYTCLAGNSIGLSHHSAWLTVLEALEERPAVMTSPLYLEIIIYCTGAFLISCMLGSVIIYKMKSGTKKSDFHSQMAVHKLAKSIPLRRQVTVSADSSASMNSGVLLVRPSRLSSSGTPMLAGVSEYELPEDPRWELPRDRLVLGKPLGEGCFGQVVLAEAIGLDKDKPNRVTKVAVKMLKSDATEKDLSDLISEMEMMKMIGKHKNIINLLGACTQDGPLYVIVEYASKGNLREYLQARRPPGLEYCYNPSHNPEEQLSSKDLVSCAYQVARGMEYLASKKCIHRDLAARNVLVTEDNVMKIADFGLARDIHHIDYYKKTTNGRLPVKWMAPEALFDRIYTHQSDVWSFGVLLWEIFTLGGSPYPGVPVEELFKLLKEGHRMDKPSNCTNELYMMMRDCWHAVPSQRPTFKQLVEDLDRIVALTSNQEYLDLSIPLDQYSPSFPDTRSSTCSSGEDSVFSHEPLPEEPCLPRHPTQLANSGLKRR
Protocol: To examine whether midi-GAGR interacts with synaptosomal FGFR1 or not, an affinity chromatography using midi-GAGR-conjugated sepharose beads was performed. Either midi-GAGR or dextran were conjugated to epoxy-activated sepharose 6B that is a pre-activated medium that can be conjugated to the hydroxyl groups of carbohydrates. Briefly, 200 μL of 7.4 mM midi-GAGR or 5 kD dextran in H2O was mixed with 200 μL of epoxy-activated sepharose beads in a microtube and incubated on a rotator (16 h, 37° C.). The mixture was spun down at 1,000×g (10 min) to separate bead-bound polysaccharides from unbound. Unoccupied active sites on beads were blocked by incubation (4 h, 45° C.) in 1 M ethanolamine (pH 8). Then, beads were washed with three cycles of alternating pH solutions—0.1 M acetate buffer (pH 4) and 0.1 M Tris-HCl buffer (pH 8), both containing 0.5 M NaCl. The conjugation of polysaccharides to beads was confirmed by phenol-sulfuric acid colorimetry. Cerebral cortices were dissected from four female mice (BALB/C, 8 wks old) and homogenized with a hand grinder in 1 mL of PMEE homogenization buffer plus 1% Igepal CA-630 and protease inhibitors (PIs). The homogenate was centrifuged at 1,000×g (10 min) to remove nuclei and undisrupted cells. The supernatant was subjected to 5-6 strokes through 27 G needle. Post-nuclear supernatant was centrifuged at 1,000×g (15 min). […]

dextran
neurites in the presence of 4-HNE (neuritic atrophy) [1]: lost neuritis | fold change in average total neurite length compared to vehicle [2]: did not enhance neuritogenesis | FGFR1 eluted from polysaccharide-conjugated beads (FGFR1): not from dextran beads
